Laboratory results published in patent US20070009563A1, “PROCESS FOR COATING FIBER OR FABRIC WITH INSECTICIDE USING A TEMPERATURE OF 150°C-190°C FOR DRYING” (priority 2005, published 2007).

What was measured:
[1] = Quantity of deltamethrin on mosquito net fabric after drying at various temperatures; type: physicochemical; conditions: polyester net coated at 55 mg/m^2
Experimental: High temperatures in the range of 150° C.-190° C. are used in the process of fabric drying according to the present invention to create fiber stability and strengthen chemicals used for stabilizing that fiber in order to make the insecticide adhere to the fiber. However, this temperature range affects the insecticide degradation. For example, coating of a polyester mosquito net with deltamethrin requires a deltamethrin concentration of 55 mg/m^2. The material is then dried at various temperatures using the same length of time for drying.
The ratio of deltamethrin degradation is also affected by the length of time for drying.

[2] = Quantity of deltamethrin on mosquito net fabric before and after washing (WHO washing procedure standard); type: physicochemical; conditions: for Deltamethrin on the fabric, After Washing 5 Times: after 5 washes; for Deltamethrin on the fabric, After Washing 10 Times: after 10 washes; for Deltamethrin on the fabric, After Washing 15 Times: after 15 washes; for Deltamethrin on the fabric, After Washing 20 Times: after 20 washes
Excerpt: In addition, the temperatures used for drying the fabric in the manufacturing process affect washing resistance. That is, the fabric which is dried at higher temperature can resist washing better than the fabric that is dried at lower temperature.

mosquitoes = assay: Efficiency test for mosquito net dipped in insecticide: 3 minutes contact, knock down and mortality; type: in vivo; conditions: for % KD, After Washing 5 Times / % mort., After Washing 5 Times: after 5 washes; for % KD, After Washing 5 Times / % KD, After Washing 10 Times / % KD, After Washing 15 Times / % KD, After Washing 20 Times / % KD, Before Washing: knock down after 60 minutes; for % mort., After Washing 5 Times / % mort., After Washing 10 Times / % mort., After Washing 15 Times / % mort., After Washing 20 Times / % mort., Before Washing: mortality after 24 hours; for % KD, After Washing 10 Times / % mort., After Washing 10 Times: after 10 washes; for % KD, After Washing 15 Times / % mort., After Washing 15 Times: after 15 washes; for % KD, After Washing 20 Times / % mort., After Washing 20 Times: after 20 washes
Experimental: The efficiency test for mosquito net dipped in insecticide/insect repellent is done by letting mosquitoes rest on the mosquito net for 3 minutes and then catching the mosquitoes, placing them in a clean container, and observing them to see which of the following conditions apply:
1. % Knock down (% KD): the number of mosquitoes that cannot move after 60 minutes, in some embodiments, must be more than 80%.
2. Mortality (% mort.): the mortality rate of mosquitoes after 24 hours, in some embodiments, must be more than 95%.

insects = conditions: with small dosages; cited from earlier work

CC1(C)[C@H](C(=O)O[C@H](C#N)c2cccc(Oc3ccccc3)c2)[C@@H]1C=C(Br)Br [deltamethrin, Deltamethrin]
Deltamethrin on the fabric of mosquito net after drying ([1]; drying temperature 150 °C): 55 mg/m^2
Deltamethrin on the fabric of mosquito net after drying ([1]; drying temperature 160 °C): 55 mg/m^2
Deltamethrin on the fabric of mosquito net after drying ([1]; drying temperature 170 °C): 55 mg/m^2
Deltamethrin on the fabric of mosquito net after drying ([1]; drying temperature 180 °C): 37 mg/m^2
Deltamethrin on the fabric of mosquito net after drying ([1]; drying temperature 190 °C): 25 mg/m^2
Deltamethrin on the fabric, After Washing 5 Times ([2]; drying temperature 150 °C): 40 mg/m^2
Deltamethrin on the fabric, After Washing 10 Times ([2]; drying temperature 150 °C): 32 mg/m^2
Deltamethrin on the fabric, After Washing 15 Times ([2]; drying temperature 150 °C): 16 mg/m^2
Deltamethrin on the fabric, After Washing 20 Times ([2]; drying temperature 150 °C): 10 mg/m^2
Deltamethrin on the fabric, Before Washing ([2]; drying temperature 150 °C): 55 mg/m^2
Deltamethrin on the fabric, After Washing 5 Times ([2]; drying temperature 160 °C): 42 mg/m^2
Deltamethrin on the fabric, After Washing 10 Times ([2]; drying temperature 160 °C): 36 mg/m^2
Deltamethrin on the fabric, After Washing 15 Times ([2]; drying temperature 160 °C): 19 mg/m^2
Deltamethrin on the fabric, After Washing 20 Times ([2]; drying temperature 160 °C): 12 mg/m^2
Deltamethrin on the fabric, Before Washing ([2]; drying temperature 160 °C): 55 mg/m^2
Deltamethrin on the fabric, After Washing 5 Times ([2]; drying temperature 170 °C): 44 mg/m^2
Deltamethrin on the fabric, After Washing 10 Times ([2]; drying temperature 170 °C): 38 mg/m^2
Deltamethrin on the fabric, After Washing 15 Times ([2]; drying temperature 170 °C): 22 mg/m^2
Deltamethrin on the fabric, After Washing 20 Times ([2]; drying temperature 170 °C): 16 mg/m^2
Deltamethrin on the fabric, Before Washing ([2]; drying temperature 170 °C): 55 mg/m^2
Deltamethrin on the fabric, After Washing 5 Times ([2]; drying temperature 180 °C): 26 mg/m^2
Deltamethrin on the fabric, After Washing 10 Times ([2]; drying temperature 180 °C): 20 mg/m^2
Deltamethrin on the fabric, After Washing 15 Times ([2]; drying temperature 180 °C): 16 mg/m^2
Deltamethrin on the fabric, After Washing 20 Times ([2]; drying temperature 180 °C): 4 mg/m^2
Deltamethrin on the fabric, Before Washing ([2]; drying temperature 180 °C): 37 mg/m^2
Deltamethrin on the fabric, After Washing 5 Times ([2]; drying temperature 190 °C): 19 mg/m^2
Deltamethrin on the fabric, After Washing 10 Times ([2]; drying temperature 190 °C): 15 mg/m^2
Deltamethrin on the fabric, After Washing 15 Times ([2]; drying temperature 190 °C): 8 mg/m^2
Deltamethrin on the fabric, After Washing 20 Times ([2]; drying temperature 190 °C): 4 mg/m^2
Deltamethrin on the fabric, Before Washing ([2]; drying temperature 190 °C): 25 mg/m^2
% KD, After Washing 5 Times (mosquitoes; drying temperature 150 °C): 100%
% mort., After Washing 5 Times (mosquitoes; drying temperature 150 °C): 100%
% KD, After Washing 10 Times (mosquitoes; drying temperature 150 °C): 100%
% mort., After Washing 10 Times (mosquitoes; drying temperature 150 °C): 100%
% KD, After Washing 15 Times (mosquitoes; drying temperature 150 °C): 100%
% mort., After Washing 15 Times (mosquitoes; drying temperature 150 °C): 90%
% KD, After Washing 20 Times (mosquitoes; drying temperature 150 °C): 95%
% mort., After Washing 20 Times (mosquitoes; drying temperature 150 °C): 82%
% KD, Before Washing (mosquitoes; drying temperature 150 °C): 100%
% mort., Before Washing (mosquitoes; drying temperature 150 °C): 100%
% KD, After Washing 5 Times (mosquitoes; drying temperature 160 °C): 100%
% mort., After Washing 5 Times (mosquitoes; drying temperature 160 °C): 100%
% KD, After Washing 10 Times (mosquitoes; drying temperature 160 °C): 100%
% mort., After Washing 10 Times (mosquitoes; drying temperature 160 °C): 96%
% KD, After Washing 15 Times (mosquitoes; drying temperature 160 °C): 100%
% mort., After Washing 15 Times (mosquitoes; drying temperature 160 °C): 90%
% KD, After Washing 20 Times (mosquitoes; drying temperature 160 °C): 96%
% mort., After Washing 20 Times (mosquitoes; drying temperature 160 °C): 80%
% KD, Before Washing (mosquitoes; drying temperature 160 °C): 100%
% mort., Before Washing (mosquitoes; drying temperature 160 °C): 100%
% KD, After Washing 5 Times (mosquitoes; drying temperature 170 °C): 100%
% mort., After Washing 5 Times (mosquitoes; drying temperature 170 °C): 100%
% KD, After Washing 10 Times (mosquitoes; drying temperature 170 °C): 100%
% mort., After Washing 10 Times (mosquitoes; drying temperature 170 °C): 100%
% KD, After Washing 15 Times (mosquitoes; drying temperature 170 °C): 100%
% mort., After Washing 15 Times (mosquitoes; drying temperature 170 °C): 90%
% KD, After Washing 20 Times (mosquitoes; drying temperature 170 °C): 95%
% mort., After Washing 20 Times (mosquitoes; drying temperature 170 °C): 82%
% KD, Before Washing (mosquitoes; drying temperature 170 °C): 100%
% mort., Before Washing (mosquitoes; drying temperature 170 °C): 100%
% KD, After Washing 5 Times (mosquitoes; drying temperature 180 °C): 100%
% mort., After Washing 5 Times (mosquitoes; drying temperature 180 °C): 82%
% KD, After Washing 10 Times (mosquitoes; drying temperature 180 °C): 95%
% mort., After Washing 10 Times (mosquitoes; drying temperature 180 °C): 62%
% KD, After Washing 15 Times (mosquitoes; drying temperature 180 °C): 82%
% mort., After Washing 15 Times (mosquitoes; drying temperature 180 °C): 22%
% KD, After Washing 20 Times (mosquitoes; drying temperature 180 °C): 84%
% mort., After Washing 20 Times (mosquitoes; drying temperature 180 °C): 0%
% KD, Before Washing (mosquitoes; drying temperature 180 °C): 100%
% mort., Before Washing (mosquitoes; drying temperature 180 °C): 98%
% KD, After Washing 5 Times (mosquitoes; drying temperature 190 °C): 100%
% mort., After Washing 5 Times (mosquitoes; drying temperature 190 °C): 68%
% KD, After Washing 10 Times (mosquitoes; drying temperature 190 °C): 95%
% mort., After Washing 10 Times (mosquitoes; drying temperature 190 °C): 18%
% KD, After Washing 15 Times (mosquitoes; drying temperature 190 °C): 44%
% mort., After Washing 15 Times (mosquitoes; drying temperature 190 °C): 0%
% KD, After Washing 20 Times (mosquitoes; drying temperature 190 °C): 16%
% mort., After Washing 20 Times (mosquitoes; drying temperature 190 °C): 0%
% KD, Before Washing (mosquitoes; drying temperature 190 °C): 100%
% mort., Before Washing (mosquitoes; drying temperature 190 °C): 96%
effectiveness relative to permethrin (insects): more than 30 times
